{"source": "patent EP1273297A1", "about": "“Vitamin E for the treatment of diseases in which the binding of the transcription factor NF-KB and/or AP-1 to promoter target sites has a beneficial effect (eg AIDS, cardiac infarction)” (Deutsches Krebsforschungszentrum Stiftung des öffentlichen …, priority 2001, dated 2003)", "key": {"[1]": {"test_system": "human peripheral blood T cells", "test": "AICD of day 6 prestimulated peripheral blood T cells restimulated with plate-bound α-CD3, cell death by propidium iodide uptake", "assay_type": "cell-based", "conditions": "depending on the blood donors; vitamin E at physiological concentrations", "description": "Freshly isolated blood T cells were stimulated by PHA and cultured in the presence of IL-2 for 6 days as described in Klas et al., Int. Immunol. 5 (1993), 625. The day 6 prestimulated T cells were then treated without or with 25 µM vitamin E (VE) Sigma (St. Louis, MO, USA) for 1 h and subsequently cultured in 96-well-flat-bottomed plates coated with α-CD3 (OKT3, 50 µg/ml; (DKFZ, Prof. Krammer) in the absence or presence of CD95-Fc (50 µg/ml; (DKFZ, Prof. Krammer, Dhein et al., Nature 373 (1995), 438) or control human (50 µg/ml) IgG-1. Cell death was assessed after a further 48 h by propidium iodide (PI) uptake (Klas et al., Int. Immunol. 5 (1993), 625.\nSince activation-induced-cell-death (AICD) is a major cause of T cell depletion in AIDS and since supplementation of vitamin E is shown to increase T cell numbers, it was investigated whether vitamin E could protect from T cell depletion by AICD. To analyze the effect of vitamin E on T cell death, freshly isolated peripheral blood T cells were prestimulated for 6 days (referred to as day 6 cells) and subsequently restimulated via the TCR by plate-bound α-CD3 antibodies. […] CD95 (APO-1/Fas) and its ligand (CD95L) are known to play a major role in AICD of T cells. […] The concentration of vitamin E in plasma from healthy individuals normally ranges from 12-35 µM. Thus, vitamin E at physiological concentrations may attenuate AICD. […]"}, "NF-κB": {"test_system": "NF-κB", "test": "EMSA, nuclear extracts of J-27 T cells, binding to CD95L promoter NF-κB sites", "assay_type": "cell-based", "conditions": "J-27 nuclear extracts, PMA/ionomycin 2 h, 50 µM vitamin E added 1 h before induction (Fig. 3A)", "description": "(A)^32P-labeled oligonucleotides containing the CD95L NF-κB (at the promoter -530 and -50 region) (Li-Weber et al., Eur. J. Immunol. 30 (2000), 661) and AP-1 (at the promoter +90 region) (Eichhorst et al., Mol. Cell. Biol. 20 (2000), 7826) binding sequences were analyzed by EMSA as described (Li-Weber et al., (2000). The EMSA probes had the following sequences: • CD95L NF-κB at-530: 5'-[…]-3' • CD95L NF-κB at-50: 5'-[…]-3' • CD95L AP-1 at +90: 5'-[…]-3'\nNuclear extracts were prepared from J-27 T cells either non-induced (-) or induced (+) for 2 h by PMA (10 ng/ml) and ionomycin (0.5 µM) in the absence (-) or presence (+) of 50 µM vitamin E (VE) (added 1 h before induction). The inducible complex corresponding to NF-κB and AP-1 were indicated. A NF-Y binding oligonucleotide 5'[…]-3' was used for equal loading of nuclear extracts.\nIt was investigated whether vitamin E affects NF-KB and AP-1 binding to the CD95L promoter target sites. Nuclear extracts were prepared from J-27 T cells stimulated in the presence or absence of vitamin E. The NF-κB and AP-1 binding sites contained in the CD95L promoter were used as probes in an electrophoretic-mobility-shift-assay (EMSA). Stimulation of T cell with PMA and ionomycin induced binding of nuclear factors to the NF-κB and AP-1 sites of the CD95L promoter (Fig. 3A). […]"}, "AP-1": {"test_system": "AP-1", "test": "Luciferase reporter assay in J-27 T cells, three copies of the CD95L promoter AP-1 motif", "assay_type": "cell-based", "conditions": "J-27 cells, 50 µM vitamin E 1 h, PMA/ionomycin 8 h (Fig. 4)", "from_the_text": "(§1) J-27 T cells were transiently transfected with the luciferase reporter constructs containing the 0.86-kb CD95L promoter (Li-Weber et al., Eur. J. Immunol. 30 (2000), 661), or three copies of the NF-κB binding sites at -530 or -50 region (Li-Weber et al., Eur. J. Immunol. 30 (2000), 661) or the AP-1 motif at +90 region (Eichhorst et al., Mol. Cell. Biol. 20 (2000), 7826) of the CD95L promoter as described in Li-Weber et al., 2000. All promoter constructs are described in the cited references. A luciferase reporter construct containing three copies of the Egr consensus binding site was used as a control (Li-Weber et al., Eur. J. Immunol. 29 (1999), 3017). After overnight culture, the cells were divided and treated with vitamin E (VE) (50 µM) or the vitamin E solvent ethanol for 1 h and than further cultured in the absence (empty box) or presence (black box) of PMA (10 ng/ml) and ionomycin (0.5 µM). Luciferase activity was determined after 8 h of stimulation. Results represent the average of three to five independent transfection experiments.\n(§2) To further investigate the effect of vitamin E on CD95L expression, the CD95L promoter (-860 to +100) or a minimal TATA promoter containing three copies of either the NF-B or the AP1 sites of the CD95L promoter were linked to the luciferase reporter gene and these constructs were transiently transfected into J-27 T cells. […]"}, "CD95L mRNA [2]": {"test_system": "CD95L mRNA", "test": "CD95L mRNA levels by RT-PCR in day 6 T cells stimulated with plate bound α-CD3", "assay_type": "cell-based, human", "conditions": "25 µM vitamin E 1 h, then α-CD3 12 h (Fig. 1B)", "description": "(§3) The day 6 T cells were cultured in the absence or presence of 25 µM vitamin E for 1 h and then stimulated for 12 h with plate bound α-CD3. The mRNA was analyzed by RT-PCR using primers specific for CD95L (Eichhorst et al., Mol. Cell. Biol. 20 (2000), 7826) . For controls, primers for IFNγ and β-actin were used. The primers had the following sequences: • CD95L: sense-5'-[…]-3' antisense-5'[…]-3' • IFN-γ: sense-5'[…]-3' antisense-5'[…]-3' • human β-actin: sense-5'[…]-3' antisense-5'[…]-3'\n(§4) Since activation-induced-cell-death (AICD) is a major cause of T cell depletion in AIDS and since supplementation of vitamin E is shown to increase T cell numbers, it was investigated whether vitamin E could protect from T cell depletion by AICD. To analyze the effect of vitamin E on T cell death, freshly isolated peripheral blood T cells were prestimulated for 6 days (referred to as day 6 cells) and subsequently restimulated via the TCR by plate-bound α-CD3 antibodies. […] CD95 (APO-1/Fas) and its ligand (CD95L) are known to play a major role in AICD of T cells. […] The concentration of vitamin E in plasma from healthy individuals normally ranges from 12-35 µM. Thus, vitamin E at physiological concentrations may attenuate AICD. Indeed, depending on the blood donors, vitamin E reduced AICD by 20-50%. […]"}, "CD95L mRNA [3]": {"test_system": "CD95L mRNA", "test": "CD95L mRNA expression by RT-PCR in J-27 T cells stimulated by PMA and ionomycin", "assay_type": "cell-based", "conditions": "J-27 cells", "description": "J-27 T cells were cultured in the absence or presence of 50 µM vitamin E for 1 h and then stimulated by PMA (10 ng/ml) and ionomycin (0.5 µM) for the indicated times. CD95L mRNA expression was analyzed by RT-PCR. Primers for IFNγ and β-actin were used as controls.\n(§5) To further investigate the molecular mechanism by which vitamin E attenuates AICD, several Jurkat T cell sub-clones susceptible to T-cell-receptor (TCR)-mediated-activation-induced apoptosis were selected. Data from one of the representative clones, clone 27 (J-27) is presented here. Activation of T cells through the T cell receptor can be mimicked by stimulation with the phorbol ester (PMA) and calcium ionophores (ionomycin). […] Therefore, it is unlikely that vitamin E directly interferes with signals downstream of the CD95 receptor. […] Thus, vitamin E may reduce CD95L expression at the transcriptional level and, therefore, attenuate AICD in J-27 cells. Experimental details are given in the legend to Figure 2."}, "J-27 cells": {"test_system": "J-27 cells", "test": "α-APO-1 induced CD95-triggered apoptosis in J-27 cells", "assay_type": "cell-based", "conditions": "50 µM vitamin E 1 h, then α-APO-1 10 ng/ml with 10 ng/ml protein A (Fig. 2D)", "description": "J-27 cells were cultured in the absence or presence of 50 µM vitamin E for 1 h and than, treated with α-APO-1 (10 ng/ml) antibody, DKFZ, Prof. Krammer, Trauth et al., Science 245 (1989), 301 in the presence of 10 ng/ml protein A for the indicated times.\nas §5"}, "IFNγ mRNA": {"test_system": "IFNγ mRNA", "test": "IFNγ mRNA levels by RT-PCR (control) in day 6 T cells stimulated with plate bound α-CD3", "assay_type": "cell-based, human", "conditions": "25 µM vitamin E 1 h, then α-CD3 12 h (Fig. 1B)", "description": "as §3, §4"}, "CD95L promoter": {"test_system": "CD95L promoter", "test": "Luciferase reporter assay in transiently transfected J-27 T cells, 0.86-kb CD95L promoter", "assay_type": "cell-based", "conditions": "J-27 cells, 50 µM vitamin E 1 h, PMA/ionomycin 8 h (Fig. 4)", "from_the_text": "as §1, §2"}}, "data": [{"smiles": "Cc1c(C)c2c(c(C)c1O)CC[C@@](C)(CCC[C@H](C)CCC[C@H](C)CCCC(C)C)O2", "note": "[vitamin E, α-tocopherol]", "values": [{"measurement": "reduced AICD", "setting": "[1]", "value": "20-50%"}, {"measurement": "binding of NF-κB to its binding sites of the CD95L promoter (-530 and -50 region)", "setting": "NF-κB", "value": "prevented binding"}, {"measurement": "luciferase expression driven by the AP-1 site of the CD95L promoter", "setting": "AP-1", "value": "greatly reduced"}, {"measurement": "increase of CD95L mRNA expression upon restimulation", "setting": "CD95L mRNA [2]", "value": "blocked"}, {"measurement": "CD95L mRNA expression", "setting": "CD95L mRNA [3]; 50 µM vitamin E 1 h, then PMA/ionomycin (Fig. 2E)", "value": "substantially reduced"}, {"measurement": "reduction of CD95L mRNA expression", "setting": "CD95L mRNA [3]; 50 µM vitamin E, 3 h post stimulation (Fig. 2E)", "value": "readily seen"}, {"measurement": "CD95L mRNA expression", "setting": "CD95L mRNA [3]; 50 µM vitamin E, 6 h post stimulation (Fig. 2E)", "value": "nearly completely blocked"}, {"measurement": "α-APO-1 induced CD95-triggered apoptosis", "setting": "J-27 cells", "value": "did not prevent"}, {"measurement": "levels of IFNγ mRNA", "setting": "IFNγ mRNA", "value": "did not significantly influence"}, {"measurement": "luciferase expression driven by the CD95L promoter", "setting": "CD95L promoter", "value": "greatly reduced"}]}]}
